Test results as given in PubChem BioAssay AID200 (DTP/NCI, 2004).
Where “and” joins values, the source holds several entries; their conditions need not be identical. Identical values can stand only once. Inconclusive results and toxic doses are left out. Rule for the calls: active = survival T/C of 150% or more; inactive = T/C below 125% in these data. Where a SMILES comes first, the peptide text is derived from it.

System: B6C3F1 mice, B16 melanoma ip, median survival T/C
Assay: NCI In Vivo Anticancer Drug Screen. Data for tumor model B16 Melanoma (intraperitoneal) in B6C3F1 mice
Settings: endpoint: median survival time, higher = longer survival
Method in brief: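 Transplantable tumor in mice; treated vs vehicle control groups; survival or tumor size measured; value = T/C ratio.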

[1] = dose: 3.12 mg/kg/injection, schedule: Q01DX009 (ip), vehicle: saline with Tween-80
[2] = dose: 6.25 mg/kg/injection, schedule: Q01DX009 (ip), vehicle: saline with Tween-80
[3] = dose: 12.5 mg/kg/injection, schedule: Q01DX009 (ip), vehicle: saline with Tween-80
[4] = dose: 25.0 mg/kg/injection, schedule: Q01DX009 (ip), vehicle: saline with Tween-80
[5] = dose: 30.0 mg/kg/injection, schedule: Q01DX001 (ip), vehicle: saline
[6] = dose: 100.0 mg/kg/injection, schedule: Q01DX009 (ip), vehicle: saline with Tween-80
[7] = dose: 400.0 mg/kg/injection, schedule: Q01DX009 (ip), vehicle: saline with Tween-80

Measured: T/C

CCCCCCCCCCCCCC#CC(=O)O
inactive: [1] 110 % of control and 94 % of control | [2] 112 % of control and 94 % of control | [3] 92 % of control and 105 % of control | [4] 89 % of control

NC(N)=NCCCC(N)C(=O)NCC(=O)NCC(=O)O (configuration not stated) (HELM PEPTIDE1{[N=C(N)NCCCC(N)C(=O)[*:2]].G.G}$$$$V2.0)
inactive: dose: 100.0 mg/kg/injection, schedule: Q01DX009 (ip), vehicle: saline 107 % of control | dose: 200.0 mg/kg/injection, schedule: Q01DX009 (ip), vehicle: saline 102 % of control | dose: 400.0 mg/kg/injection, schedule: Q01DX009 (ip), vehicle: saline 111 % of control

O=NN(CCF)C(=O)NC1C(O)CCCC1O (configuration not stated)
active: dose: 7.5 mg/kg/injection, schedule: Q01DX001 (ip), vehicle: saline 198 % of control | dose: 15.0 mg/kg/injection, schedule: Q01DX001 (ip), vehicle: saline 222 % of control | [5] 350 % of control | dose: 60.0 mg/kg/injection, schedule: Q01DX001 (ip), vehicle: saline 350 % of control

COc1cc(O)c2c(O)c3c(c4c2c1[C@]1(C4)C(C)=CCCC1(C)C)[C@H](O)[C@@]1(O)CC(=O)C(C(N)=O)=C(O)[C@@]1(O)C3=O
inactive: dose: 1.56 mg/kg/injection, schedule: Q01DX009 (ip), vehicle: saline with Tween-80 90 % of control | [1] 106 % of control | [2] 117 % of control

COc1cccc2c1C(=O)c1c(O)c3c(c(O)c1C2=O)C[C@@](O)(C(=O)CO)C[C@@H]3OC1CC(N)CC(C)O1 (some centres not stated)
active: dose: 0.18 mg/kg/injection, schedule: Q01DX009 (ip), vehicle: water 174 % of control | dose: 0.37 mg/kg/injection, schedule: Q01DX009 (ip), vehicle: water 231 % of control | dose: 0.38 mg/kg/injection, schedule: Q01DX009 (ip), vehicle: water 175 % of control | dose: 0.75 mg/kg/injection, schedule: Q01DX009 (ip), vehicle: water 187 % of control and 238 % of control | dose: 1.5 mg/kg/injection, schedule: Q01DX009 (ip), vehicle: water 181 % of control and 187 % of control

CCN(CC)CCCC(C)Nc1c2ccc(Cl)cc2nc2ccc(OC)cc12 (configuration not stated)
inactive: dose: 3.75 mg/kg/injection, schedule: Q01DX009 (ip), vehicle: Klucel (hydroxypropylcellulose) (HPC) 102 % of control | dose: 7.5 mg/kg/injection, schedule: Q01DX009 (ip), vehicle: Klucel (hydroxypropylcellulose) (HPC) 98 % of control | dose: 15.0 mg/kg/injection, schedule: Q01DX009 (ip), vehicle: Klucel (hydroxypropylcellulose) (HPC) 109 % of control | dose: 30.0 mg/kg/injection, schedule: Q01DX009 (ip), vehicle: Klucel (hydroxypropylcellulose) (HPC) 121 % of control

O=NN(CCCl)C(=O)NCCCl
inactive: dose: 1.5 mg/kg/injection, schedule: Q01DX009 (ip), vehicle: alcohol 112 % of control and 118 % of control | dose: 1.5 mg/kg/injection, schedule: Q01DX009 (ip), vehicle: other 108 % of control | dose: 3.0 mg/kg/injection, schedule: Q01DX009 (ip), vehicle: other 116 % of control | dose: 5.0 mg/kg/injection, schedule: Q01DX005 (iv), vehicle: saline + alcohol 107 % of control | dose: 10.0 mg/kg/injection, schedule: Q01DX001 (ip), vehicle: saline + alcohol 120 % of control | dose: 10.0 mg/kg/injection, schedule: Q01DX001 (ip), vehicle: saline 111 % of control and 120 % of control | dose: 10.0 mg/kg/injection, schedule: Q01DX001 (iv), vehicle: saline + alcohol 104 % of control | dose: 10.0 mg/kg/injection, schedule: Q01DX005 (iv), vehicle: saline + alcohol 124 % of control | dose: 12.0 mg/kg/injection, schedule: Q01DX009 (ip), vehicle: other 110 % of control
active: dose: 6.0 mg/kg/injection, schedule: Q01DX009 (ip), vehicle: alcohol 184 % of control | dose: 6.0 mg/kg/injection, schedule: Q01DX009 (ip), vehicle: other 154 % of control | dose: 20.0 mg/kg/injection, schedule: Q01DX001 (ip), vehicle: saline + alcohol 154 % of control | [5] 156 % of control | dose: 40.0 mg/kg/injection, schedule: Q01DX001 (ip), vehicle: saline + alcohol 175 % of control | dose: 40.0 mg/kg/injection, schedule: Q01DX001 (iv), vehicle: saline + alcohol 185 % of control

COC1(OC)C2C=CC1CC2
inactive: [3] 108 % of control and 98 % of control | [4] 101 % of control | dose: 50.0 mg/kg/injection, schedule: Q01DX009 (ip), vehicle: saline with Tween-80 113 % of control and 102 % of control | [6] 114 % of control and 100 % of control | dose: 200.0 mg/kg/injection, schedule: Q01DX009 (ip), vehicle: saline with Tween-80 100 % of control and 102 % of control | [7] 98 % of control

CO[C@H]1Nc2c(ccc(C)c2O)C(=O)N2C=C(/C=C/C(N)=O)C[C@@H]12
inactive: dose: 0.03 mg/kg/injection, schedule: Q01DX009 (ip), vehicle: saline with Tween-80 111 % of control | dose: 0.05 mg/kg/injection, schedule: Q04DX003 (ip), vehicle: DMSO 92 % of control | dose: 0.06 mg/kg/injection, schedule: Q01DX009 (ip), vehicle: saline with Tween-80 104 % of control | dose: 0.1 mg/kg/injection, schedule: Q04DX003 (ip), vehicle: DMSO 105 % of control | dose: 0.12 mg/kg/injection, schedule: Q01DX009 (ip), vehicle: saline with Tween-80 102 % of control | dose: 0.2 mg/kg/injection, schedule: Q04DX003 (ip), vehicle: DMSO 109 % of control | dose: 0.25 mg/kg/injection, schedule: Q01DX009 (ip), vehicle: saline with Tween-80 122 % of control | dose: 0.4 mg/kg/injection, schedule: Q04DX003 (ip), vehicle: DMSO 104 % of control

CCCCCCC(=O)CC(SCC)c1ccccc1Cl (configuration not stated)
inactive: [4] 86 % of control | [6] 93 % of control | [7] 96 % of control

Oc1ccc(OCc2ccccc2)cc1
inactive: dose: 12.5 mg/kg/injection, schedule: Q01DX009 (ip), vehicle: Klucel (hydroxypropylcellulose) (HPC) 107 % of control and 100 % of control | dose: 25.0 mg/kg/injection, schedule: Q01DX009 (ip), vehicle: Klucel (hydroxypropylcellulose) (HPC) 91 % of control and 102 % of control | dose: 50.0 mg/kg/injection, schedule: Q01DX009 (ip), vehicle: Klucel (hydroxypropylcellulose) (HPC) 90 % of control and 96 % of control | dose: 100.0 mg/kg/injection, schedule: Q01DX009 (ip), vehicle: Klucel (hydroxypropylcellulose) (HPC) 100 % of control and 107 % of control | dose: 200.0 mg/kg/injection, schedule: Q01DX009 (ip), vehicle: Klucel (hydroxypropylcellulose) (HPC) 98 % of control [middle of 4 runs] | dose: 400.0 mg/kg/injection, schedule: Q01DX009 (ip), vehicle: Klucel (hydroxypropylcellulose) (HPC) 102 % of control and 94 % of control

Cc1cn(C2CC(F)C(CO)O2)c(=O)[nH]c1=O (configuration not stated)
inactive: dose: 125.0 mg/kg/injection, schedule: Q01DX009 (ip), vehicle: suspension in saline 117 % of control | dose: 250.0 mg/kg/injection, schedule: Q01DX009 (ip), vehicle: suspension in saline 116 % of control

CN(C)c1ccc2c(NCCCCCCNc3ccnc4cc(N(C)C)ccc34)ccnc2c1
inactive: dose: 1.56 mg/kg/injection, schedule: Q01DX009 (ip), vehicle: distilled water + alcohol 94 % of control | dose: 3.12 mg/kg/injection, schedule: Q01DX009 (ip), vehicle: distilled water + alcohol 92 % of control | dose: 6.25 mg/kg/injection, schedule: Q01DX009 (ip), vehicle: distilled water + alcohol 106 % of control | dose: 12.5 mg/kg/injection, schedule: Q01DX009 (ip), vehicle: distilled water + alcohol 116 % of control | dose: 25.0 mg/kg/injection, schedule: Q01DX009 (ip), vehicle: distilled water + alcohol 112 % of control

C[n+]1c(-c2cccc3ccccc23)c2cc(N)ccc2c2ccccc21
inactive: dose: 1.56 mg/kg/injection, schedule: Q01DX009 (ip), vehicle: saline 117 % of control | dose: 3.12 mg/kg/injection, schedule: Q01DX009 (ip), vehicle: saline 122 % of control | dose: 6.25 mg/kg/injection, schedule: Q01DX009 (ip), vehicle: saline 119 % of control

O=C(N/N=C/c1c(O)ccc2ccccc12)C(=O)N/N=C/c1c(O)ccc2ccccc12
inactive: [3] 110 % of control and 94 % of control and 107 % of control | [4] 111 % of control and 112 % of control and 118 % of control | [6] 94 % of control

CCCOC(=O)c1nc(N(CC2CCCCC2)C(=O)NC)sc1/N=C/c1ccccc1
inactive: dose: 9.0 mg/kg/injection, schedule: Q01DX009 (ip), vehicle: saline with Tween-80 96 % of control | dose: 18.0 mg/kg/injection, schedule: Q01DX009 (ip), vehicle: saline with Tween-80 86 % of control | dose: 36.0 mg/kg/injection, schedule: Q01DX009 (ip), vehicle: saline with Tween-80 86 % of control
